The source of these data is ChEMBL document CHEMBL1127150, “Enantioselective synthesis and antielastase activity of 1,3,4-trisubstituted and 3,4-disubstituted -lactam antibiotics” (Bioorg Med Chem Lett, 1993).

The source made the active and inactive calls. The calls are words filed in the database; no cut-off is given here.

The target in one assay is T1, Neutrophil elastase (Homo sapiens, UniProt P08246).
T1 sequence (P08246 whole entry): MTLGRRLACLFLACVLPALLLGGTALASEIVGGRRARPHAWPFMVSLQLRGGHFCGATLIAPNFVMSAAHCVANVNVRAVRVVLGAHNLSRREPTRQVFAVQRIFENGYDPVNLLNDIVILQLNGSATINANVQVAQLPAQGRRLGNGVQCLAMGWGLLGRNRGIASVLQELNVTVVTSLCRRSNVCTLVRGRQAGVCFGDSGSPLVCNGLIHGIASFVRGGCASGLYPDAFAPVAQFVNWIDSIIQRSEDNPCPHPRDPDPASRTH
In words: The compound was evaluated in vitro for the inhibition of human leukocyte elastase(HLE).

The target of assay [1] is T2, Neutrophil elastase (Homo sapiens) (UniProt P08246).
T2 sequence (whole entry): T1 sequence (P08246 whole entry)
In words: The compound was evaluated in vitro for the inhibition of human leukocyte elastase(HLE); Not Active.

For assay [2], the target named is T3, Chymotrypsin-like elastase family member 2A (Sus scrofa) (UniProt P08419).
T3 sequence (whole entry): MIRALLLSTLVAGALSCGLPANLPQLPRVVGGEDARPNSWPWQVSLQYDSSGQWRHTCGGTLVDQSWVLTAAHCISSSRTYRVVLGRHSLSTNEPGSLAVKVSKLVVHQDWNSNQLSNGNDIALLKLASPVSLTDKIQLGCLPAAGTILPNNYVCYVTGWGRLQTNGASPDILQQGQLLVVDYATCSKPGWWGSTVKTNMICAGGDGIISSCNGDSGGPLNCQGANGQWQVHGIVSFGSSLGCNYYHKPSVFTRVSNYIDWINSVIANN
In words: The compound was evaluated in vitro for the inhibition of Pancreatic elastase (PPE); Not Active.

Regarding `CO[C@@H]1C(=O)N([C@@H](C2SCCCS2)C2OC(C)(C)OC2C2COC(C)(C)O2)[C@@H]1/C(C)=C/c1ccccc1` (stereo not given in full), on Neutrophil elastase, the half-inhibitory concentration (IC50) – broadly, the point on the concentration scale where inhibition reaches its midpoint – was determined as 18 µM.
On the same count and under the same terms, the figure for `CCCC[C@@H]1C(=O)N([C@@H](C2SCCCS2)C2OC(C)(C)OC2C2COC(C)(C)O2)[C@@H]1/C(C)=C/c1ccccc1` (stereo not given in full) is 11 µM.
For the molecule `CO[C@H]1C(=O)N[C@H]1/C=C/c1ccccc1`, the outcome in assay [1] and in assay [2] was inactive.
As for `CCCC[C@@H]1C(=O)N[C@@H]1C(C)=O`, the outcome in assay [1] and in assay [2] was inactive.
For `CO[C@@H]1C(=O)N[C@@H]1/C=C/c1ccccc1`, the result in assay [1] and in assay [2] was inactive.
Take `CCCC[C@@H]1C(=O)N[C@@H]1/C(C)=C/c1ccccc1` (stereo in doubt; 11): the outcome in assay [1] and in assay [2] was inactive.
On to `CO[C@@H]1C(=O)N[C@@H]1/C(C)=C/c1ccccc1`, for which the outcome in assay [1] and in assay [2] was inactive.
For the molecule `CCCC[C@@H]1C(=O)N(C(C)=O)[C@@H]1C(C)=O`, it took 45 µM to reach half-maximal inhibition on Neutrophil elastase (IC50).
Regarding `CO[C@@H]1C(=O)N[C@@H]1C(C)=O`, the result in assay [1] and in assay [2] was inactive.
`CO[C@@H]1C(=O)N(C(C)=O)[C@@H]1C(C)=O` gave a half-inhibitory concentration (IC50) against Neutrophil elastase of 94 µM.
The same measure, in the same setting: the figure for `O=c1oc(Cl)c(Cl)c2ccccc12` is 0.1 µM.
For the molecule `CO[C@@H]1C(=O)N[C@@H]1OC(C)=O`, the result in assay [1] and in assay [2] was inactive.
Molecule `CCCC[C@H]1C(=O)N([C@@H](C2SCCCS2)C2OC(C)(C)OC2C2COC(C)(C)O2)[C@H]1/C(C)=C/c1ccccc1` (stereo not given in full) yielded a half-maximal inhibitory concentration (IC50) on Neutrophil elastase of 13 µM.
On to `CO[C@@H]1C(=O)N[C@@H]1c1ccccc1`, for which the result in assay [1] and in assay [2] was inactive.
On to `CCCC[C@@H]1C(=O)N(C(C)=O)[C@@H]1/C(C)=C/c1ccccc1`, for which, at Neutrophil elastase, it took 43 µM to reach half-maximal inhibition (IC50).
In the case of `CCCC[C@@H]1C(=O)N[C@@H]1/C(C)=C/c1ccccc1` (stereo in doubt; 10), the outcome in assay [1] and in assay [2] was inactive.
Take `CO[C@@H]1C(=O)N(C(C)=O)[C@@H]1c1ccccc1`: the IC50 on Neutrophil elastase was found to be 1.6 µM.
The same measure, in the same setting: the same measure for `CO[C@@H]1C(=O)N(C(C)=O)[C@@H]1/C(C)=C/c1ccccc1`: 1.4 µM.
As for `CO[C@H]1C(=O)N[C@H]1c1ccccc1`, the result in assay [1] and in assay [2] was inactive.
`CO[C@H]1C(=O)N([C@@H](C2SCCCS2)C2OC(C)(C)OC2C2COC(C)(C)O2)[C@H]1/C=C/c1ccccc1` (stereo not given in full) yielded a half-inhibitory concentration (IC50) at Neutrophil elastase of 76 µM.
